In the supplement of paper PMC10307832:

Assays:
Experiment in all cases: relative viability (nuclei count vs DMSO), 5 days (fraction); higher = more cells survive
BI-2536 + Pemetrexed = compound: CC[C@@H]1C(=O)N(C)c2cnc(Nc3ccc(C(=O)NC4CCN(C)CC4)cc3OC)nc2N1C1CCCC1 [BI-2536] + Nc1nc2[nH]cc(CCc3ccc(C(=O)N[C@@H](CCC(=O)O)C(=O)O)cc3)c2c(=O)[nH]1 [Pemetrexed] (partner 0.2 µM)
Procedure, shortened: (§1)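 Lung cancer cell lines were pin-tool dosed in 1536-well plates on the day after seeding, with either a lone drug or a fixed anchor-drug dose plus five library-drug doses (not always all listed) in √10 steps. Nuclei were counted on 4× images after 5 days. Relative viability is the ratio of treated-well to vehicle-well nuclei counts, with each value a median of duplicate plates.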

[1] = compound: CC1CC(=O)N(C2=CN=C(N=C2N1C3CCCC3)NC4=C(C=C(C=C4)C(=O)NC5CCN(CC5)C)OC)C [NPK76-II-72-1] + Cc1nc(Nc2ncc(C(=O)Nc3c(C)cccc3Cl)s2)cc(N2CCN(CCO)CC2)n1 [Dasatinib] (partner 0.075 µM)
Procedure, shortened: as §1

BI-2536 + Tozasertib = compound: CC[C@@H]1C(=O)N(C)c2cnc(Nc3ccc(C(=O)NC4CCN(C)CC4)cc3OC)nc2N1C1CCCC1 [BI-2536] + Cc1cc(Nc2cc(N3CCN(C)CC3)nc(Sc3ccc(NC(=O)C4CC4)cc3)n2)n[nH]1 [Tozasertib] (partner 0.1 µM)
Procedure, shortened: as §1

BI-2536 + Bortezomib = compound: CC[C@@H]1C(=O)N(C)c2cnc(Nc3ccc(C(=O)NC4CCN(C)CC4)cc3OC)nc2N1C1CCCC1 [BI-2536] + CC(C)C[C@H](NC(=O)[C@H](Cc1ccccc1)NC(=O)c1cnccn1)B(O)O [Bortezomib] (partner 0.002 µM)
Procedure, shortened: as §1

Row | Cell Line | relative viability (BI-2536 + Pemetrexed; first compound 0.01 µM) | relative viability (BI-2536 + Pemetrexed; first compound 0.03162 µM) | relative viability (BI-2536 + Pemetrexed; first compound 0.1 µM) | relative viability (BI-2536 + Pemetrexed; first compound 0.3162 µM) | relative viability (BI-2536 + Pemetrexed; first compound 1 µM) | relative viability ([1]; first compound 0.01 µM) | relative viability ([1]; first compound 0.03162 µM) | relative viability ([1]; first compound 0.1 µM) | relative viability ([1]; first compound 0.3162 µM) | relative viability ([1]; first compound 1 µM) | relative viability (BI-2536 + Tozasertib; first compound 0.01 µM) | relative viability (BI-2536 + Tozasertib; first compound 0.03162 µM) | relative viability (BI-2536 + Tozasertib; first compound 0.1 µM) | relative viability (BI-2536 + Tozasertib; first compound 0.3162 µM) | relative viability (BI-2536 + Tozasertib; first compound 1 µM) | relative viability (BI-2536 + Bortezomib; first compound 0.01 µM) | relative viability (BI-2536 + Bortezomib; first compound 0.03162 µM) | relative viability (BI-2536 + Bortezomib; first compound 0.1 µM) | relative viability (BI-2536 + Bortezomib; first compound 0.3162 µM) | relative viability (BI-2536 + Bortezomib; first compound 1 µM)
1 | 201T | 0.362 | 0.302 | 0.298 | 0.208 | 0.224 | 0.574 | 0.614 | 0.52 | 0.525 | 0.59 | 0.996 | 0.925 | 0.93 | 0.41 | 0.388 | 1.11 | 1.12 | 1.07 | 1.09 | 0.367
2 | A-427 | 1.01 | 1.07 | 0.504 | 0.198 | 0.196 | 0.659 | 0.822 | 0.688 | 0.674 | 0.726 | 0.187 | 0.211 | 0.189 | 0.15 | 0.146 | 0.955 | 1.04 | 0.763 | 0.123 | 0.1
3 | ABC-1 | – | – | – | – | – | – | 0.578 | 0.622 | 0.573 | 0.614 | 0.203 | 0.147 | 0.185 | 0.197 | 0.233 | 0.252 | 0.29 | 0.265 | 0.242 | 0.213
4 | BEN | 0.676 | 0.83 | 0.447 | 0.325 | 0.422 | 0.33 | 0.232 | 0.314 | 0.345 | 0.324 | 0.524 | 0.546 | 0.452 | 0.58 | 0.553 | 0.61 | 0.896 | 0.43 | 0.223 | 0.287
5 | CAL-12T | 1.04 | 0.955 | 0.623 | 0.195 | 0.131 | 0.369 | 0.379 | 0.364 | 0.319 | 0.391 | 0.291 | 0.294 | 0.2 | 0.194 | 0.186 | 0.926 | 0.823 | 0.393 | 0.182 | 0.192
6 | COR-L23 | 0.216 | 0.206 | 0.178 | 0.144 | 0.133 | 0.439 | 0.533 | 0.554 | 0.433 | 0.526 | 0.196 | 0.189 | 0.137 | 0.145 | 0.151 | 1.08 | 0.901 | 0.27 | – | 0.101
7 | COR-L 105 | 0.986 | 1.13 | 1.01 | 0.384 | 0.362 | 0.33 | 0.317 | 0.384 | 0.323 | 0.467 | 0.351 | 0.408 | 0.299 | 0.306 | 0.333 | 0.764 | 0.761 | 0.344 | 0.245 | 0.237
8 | Calu-6 | – | – | – | – | – | – | – | – | – | – | – | – | – | – | – | 0.871 | 0.62 | 0.183 | 0.144 | 0.141
9 | ChaGo-K-1 | 0.268 | 0.264 | 0.215 | 0.179 | 0.17 | 0.577 | 0.624 | 0.505 | 0.53 | 0.596 | 0.216 | 0.227 | 0.219 | 0.211 | 0.239 | 0.905 | 0.852 | 0.469 | 0.301 | 0.281
10 | EBC-1 | – | – | – | – | – | – | – | – | – | – | – | – | – | – | – | 0.477 | 0.46 | 0.222 | 0.217 | 0.175
11 | EKVX | 0.389 | 0.403 | 0.326 | 0.194 | 0.28 | 0.58 | 0.528 | 0.519 | – | 0.652 | 0.321 | 0.482 | 0.394 | 0.202 | 0.132 | 0.976 | 1.16 | 1.03 | 0.164 | 0.148
12 | EMC-BAC-2 | 0.44 | 0.429 | 0.367 | 0.309 | 0.285 | 0.345 | 0.295 | 0.346 | 0.333 | 0.367 | 0.302 | 0.302 | 0.201 | 0.212 | 0.209 | 1.08 | 1.11 | 1.06 | 0.628 | 0.172
13 | EPLC-272H | 0.294 | 0.173 | 0.0902 | 0.106 | 0.0725 | 0.318 | – | 0.332 | 0.251 | 0.357 | 0.187 | 0.252 | 0.215 | 0.148 | 0.164 | 0.939 | 0.891 | – | 0.786 | 0.101
14 | H3255 | 0.543 | 0.528 | 0.492 | 0.248 | 0.268 | 0.406 | 0.314 | 0.323 | 0.245 | 0.35 | 0.569 | 0.507 | 0.586 | 0.196 | 0.224 | 0.824 | 0.679 | 0.36 | 0.241 | 0.276
15 | HARA | 0.258 | 0.313 | 0.222 | 0.146 | 0.126 | 0.254 | 0.233 | 0.168 | 0.237 | 0.219 | 0.109 | 0.127 | 0.114 | 0.0998 | 0.128 | 1.19 | 1.27 | 0.751 | 0.0898 | 0.0779
16 | HCC-15 | 0.228 | 0.211 | 0.197 | 0.179 | 0.179 | 0.598 | 0.637 | 0.599 | 0.642 | 0.649 | 0.461 | 0.389 | 0.195 | 0.14 | 0.108 | 1.01 | 0.96 | 0.902 | 0.542 | 0.114
17 | HCC-44 | 0.738 | 0.612 | 0.651 | 0.38 | 0.246 | – | – | – | – | – | 0.967 | 0.333 | 0.262 | 0.143 | 0.216 | 0.905 | 0.885 | 0.297 | 0.14 | 0.0751
18 | HCC-78 | 0.981 | 0.874 | 0.932 | 0.895 | 0.847 | 0.384 | 0.363 | 0.449 | 0.346 | 0.402 | 0.405 | 0.304 | 0.325 | 0.253 | 0.259 | 0.505 | 0.559 | 0.487 | 0.352 | 0.219
